Measured values as given in publication PMC6327044, “A chemical biology screen identifies a vulnerability of neuroendocrine cancer cells to SQLE inhibition” (Nature Communications, 2019).

Columns and labels:
Experiment in all cases: cells
Set-up in all cases: species or system panel of 482 human cancer cell lines; ATPLite luminescence growth inhibition after treatment, nine-point dilution curve, 482 cancer cell lines, 384-well
Conditions in all cases: 72 h, recommended growth medium
BEN_LUNG = test system: BEN_LUNG
Procedure, shortened: (§1)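 Growth inhibition was measured across a panel of 482 cancer cell lines. Cells were plated at 500 cells per well in recommended growth media in black, tissue culture treated 384-well plates, centrifuged to equilibrate, and incubated 24 h before dosing. Compounds were tested as nine-point dilution curves for 72 h, with viability read by ATPLite luminescence relative to DMSO-treated controls.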

[1] = test system: HTK_HAEMATOPOIETIC_AND_LYMPHOID_TISSUE
Procedure, shortened: as §1

KURAMOCHI_OVARY = test system: KURAMOCHI_OVARY
Procedure, shortened: as §1

KYSE520_OESOPHAGUS = test system: KYSE520_OESOPHAGUS
Procedure, shortened: as §1

[2] = test system: MINO_HAEMATOPOIETIC_AND_LYMPHOID_TISSUE
Procedure, shortened: as §1

NCIH2126_LUNG = test system: NCIH2126_LUNG
Procedure, shortened: as §1

NCIH2170_LUNG = test system: NCIH2170_LUNG
Procedure, shortened: as §1

OAW28_OVARY = test system: OAW28_OVARY
Procedure, shortened: as §1

SKMEL3_SKIN = test system: SKMEL3_SKIN
Procedure, shortened: as §1

SNU308_BILIARY_TRACT = test system: SNU308_BILIARY_TRACT
Procedure, shortened: as §1

SNU503_LARGE_INTESTINE = test system: SNU503_LARGE_INTESTINE
Procedure, shortened: as §1

SNU620_STOMACH = test system: SNU620_STOMACH
Procedure, shortened: as §1

SW1116_LARGE_INTESTINE = test system: SW1116_LARGE_INTESTINE
Procedure, shortened: as §1

## CCN(C/C=C/C#CC(C)(C)C)Cc1cccc(OCc2cc(-c3ccsc3)cs2)c1 [NB-598]
BEN_LUNG
  GI50: 21.4 µM
[1]
  GI50: 4.77 µM
KURAMOCHI_OVARY
  GI50: 52 µM
KYSE520_OESOPHAGUS
  GI50: 45.5 µM
[2]
  GI50: 33.4 µM
NCIH2126_LUNG
  GI50: 0.144 µM
NCIH2170_LUNG
  GI50: 0.608 µM
OAW28_OVARY
  GI50: 65.4 µM
SKMEL3_SKIN
  GI50: 0.263 µM
SNU308_BILIARY_TRACT
  GI50: 2.92 µM
SNU503_LARGE_INTESTINE
  GI50: 0.598 µM
SNU620_STOMACH
  GI50: 1.78 µM
SW1116_LARGE_INTESTINE
  GI50: 19.1 µM
